Patent US20240002326A1, “COMPOUNDS AND USE THEREOF IN METHODS OF TREATMENT” (The University of Queensland, priority 2016, published 2024)

What was measured:
full-length mouse SOX18 = full-length mouse SOX18 (Mus musculus (Mouse), UniProt P43680); test: FP DNA-binding competition assay, full-length SOX18; conditions: full-length mouse SOX18, Prox1-DNA probe, read-out: FP IC50 ± SD
Procedure: Full-length mouse SOX18. A N-terminally tagged mouse HIS-GST-SOX18 was recombinantly expressed in Sf9 cells, purified on GST resin (GE Healthcare Life Sciences, Sweden) and eluted in Tris buffer (50 mM Tris, 500 mM NaCl, 10 mM reduced glutathione, pH 8.0). cDNA clone of mouse Sox18 was PCR amplified and cloned into the pOPIN-GST vector, to generate N-terminally tagged HIS-GST-SOX18. A sequence verified construct was co-transfected with flashBACULTRA (Oxford Expression Technologies, Oxford, United Kingdom) baculovirus DNA onto Spodoptera frugiperda Sf9 cells to obtain recombinantly expressed HIS-GST-SOX18. High Five cells (BTI-TN-5B1-4) in Sf-900™ II serum-free medium were infected at cell density of 1.5×10^6 cells/mL with a multiplicity of infection (MOI) of 5 PFU/cell, and incubated at 21° C. for 144 h before harvest. The cell pellet from 100 mL of expression culture was resuspended in 30 mL of phosphate lysis buffer (50 mM sodium phosphate, 500 mM sodium chloride, 1% Triton X-100, 2 mM magnesium chloride, one tablet of cOmplete Protease Inhibitor Cocktail, pH 7.5) and sonicated on ice for 20 s. The cell lysate was centrifuged at 17,000×g for 40 min at 4° C. Supernatant was incubated with Benzonase Nuclease (Merck Millipore) for 1 h at room temperature for DNA degradation, before being mixed with 500 μL GST resin (GE Healthcare Life Sciences, Sweden) and incubated on a rotating wheel at room temperature for 1 h. The sample was centrifuged at 500×g for 1 min to remove unbound protein in the supernatant. The resin was further washed with 50 resin volumes (RV) wash buffer (50 mM sodium phosphate, 500 mM NaCl, pH 7.5), with unbound protein removed by centrifugation as above. Bound protein was eluted from the resin with 3×1 RV elution buffer (50 mM Tris, 500 mM NaCl, 10 mM reduced glutathione, pH 8.0), collecting the supernatant by centrifugation as above.
The DNA-binding competition assay was performed in black 384-well plates, with mouse full length SOX18, or SOX-HMG fragments. All experiments were performed using a fluorescently-labelled Prox1-DNA element. Controls consisted of free labelled DNA (low FP milli-Polarization index, mP), labelled DNA in presence of protein (negative control, high mP), and labelled DNA and protein in presence of competing excess of unlabelled DNA (positive control, low mP)
The DNA-binding competition assay was performed in 25 uL, in black 384-well plates, using either 30 mM HEPES (N-2-Hydroxyethylpiperazine-N′-2-Ethanesulfonic Acid) (pH 7.5, with 100 mM KCl, 40 mM NaCl, 10 mM NH4OAc, […], 2 mM MgCl2, 0.5 mM EDTA, 0.01% NP-40) for mouse full length SOX18, or Tris-NaCl (10 mM Tris pH 8.0 and 100 mM NaCl) for SOX-HMG fragments. All experiments were performed using a 40 bp double-stranded Prox1-DNA element with 5′ fluorescein amidite (FAM) label (Sigma Proligo or InVitrogen). Optimum binding levels were obtained at 200 nM of mouse full length SOX18 and 60 nM of SOX-HMG fragment, in presence of 5 nM labelled DNA. Controls consisted of free labelled DNA (low FP milli-Polarization index, mP), labelled DNA in presence of protein (negative control, high mP), and labelled DNA and protein in presence of 400 time competing excess of unlabelled DNA (positive control, low mP). Depending on compound, final DMSO concentrations ranged from 2 to 3.33% v/v. After mixing protein, DNA probe and compound, plates were sealed and briskly agitated in the dark for 5 minutes at room temperature, 10 minutes at 37° C., and 30 minutes at room temperature, before reading fluorescence polarization on a Tecan M1000Pro (λexc=485 nm, λem=525 nm). All experiments were performed in triplicates.

[1] = Cytotoxicity assay (Alamar blue), COS-7; format: cell-based, Monkey; conditions: chlorocebus aethiops, COS-7 cells; COS7, 24 h; read-out: In vitro cytotoxicity CC50 ± SD COS7
Procedure: (§1) Cell toxicity was determined using Alamar blue, as previously described (McMillian et al., 2002). COS-7 cells were seeded as 7000 cells per well in black wall clear bottom 96-well plates in DMEM medium (Life Technologies Australia) with 10% FBS. HepG2 and HEK293 cell lines, from ATCC, were seeded as 5000 cells per well in black wall clear bottom 384-well cell culture plates in DMEM with 1% FBS. Cells were cultured for 24 h at 37° C., 5% CO2. A serial dilution of compounds was added, with a final DMSO concentration adjusted to 0.5% v/v. Cells were incubated for another 24 h. 1 Triton X-100 was used as negative control, and 0.5% DMSO as positive control. 5 μM Alamar blue was added to each well and fluorescence was measured (λexc=560 nm, λem=590 nm) after 2 h incubation at 37° C. Data were analysed using Prism software.

[2] = Critical micelle concentration (CMC) assay; format: physicochemical; conditions: threshold concentration of micelle formation in 200 mM NaCl or FP buffer
Procedure: Critical micelle concentration was determined based on the incorporation of fluorescent 1,6-diphenyl-1,3,5-hexatriene (DPH) into micelles (Chattopadhyay and London, 1984). Small molecules and positive controls (neutral detergent Triton X100 and anionic detergent SDS) were cascade diluted in low binding 96-well plates from 1000 μM to 0.1 μM. Dilutions were performed in 200 mM NaCl or FP buffer. DPH was supplemented at 5 μM into black 384-well plates. Fluoresence intensity (λexc=360 nm, λem=430 nm) was measured following a 30-min incubation at room temperature, to graphically estimate CMC transition.

COS-7 cells = test: Cytotoxicity assay (Alamar blue), COS-7; format: cell-based, Monkey; conditions: COS7, 24 h; read-out: In vitro cytotoxicity CC50 ± SD COS7
Procedure: as §1

Chain of full-length mouse SOX18 (P43680 whole entry): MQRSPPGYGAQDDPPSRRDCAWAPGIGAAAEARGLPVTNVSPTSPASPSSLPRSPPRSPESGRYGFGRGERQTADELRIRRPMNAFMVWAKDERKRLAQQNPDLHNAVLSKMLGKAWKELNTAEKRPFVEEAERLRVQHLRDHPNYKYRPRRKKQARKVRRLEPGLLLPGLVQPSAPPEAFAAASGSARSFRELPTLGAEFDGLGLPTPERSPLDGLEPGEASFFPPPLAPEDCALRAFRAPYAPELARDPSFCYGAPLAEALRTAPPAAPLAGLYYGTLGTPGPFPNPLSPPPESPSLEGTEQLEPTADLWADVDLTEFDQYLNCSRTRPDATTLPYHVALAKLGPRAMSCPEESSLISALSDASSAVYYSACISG

| SMILES | IC50 (full-length mouse SOX18) | CC50 at 24 h [1] | CMC [2] | CC50 (COS-7 cells) |
| --- | --- | --- | --- | --- |
| O=C(O)c1ccccc1Nc1cccc(C(F)(F)F)c1 [Flufenamic acid, reference compound] | 220 ± 68.6 µM | 65 ± 2.7 µM | – | – |
| O=C(O)c1c(O)cccc1COCCc1ccccc1 [Sm5] | 1100 µM | – | >1000 µM | > 200 µM |
